Tests used:
[1] = system: barnyardgrass; assay: Test A pre-/postemergence herbicide test; assay type: in vivo, Echinochloa crus-galli; settings: for Plant response rating, Barnyardgrass: 0 to 100 scale
Summary of the method: (§1)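 Greenhouse pot test with pre- and postemergence application of surfactant-containing solvent formulations. Postemergence plants were 2–10 cm, one- to two-leaf stage. Response scored visually after ~10 days, 0 (no effect) to 100 (complete control).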

[2] = system: kochia; assay: Test A pre-/postemergence herbicide test; assay type: in vivo, Kochia scoparia; settings: for Plant response rating, Kochia: 0 to 100 scale
Summary of the method: as §1

[3] = system: ragweed; assay: Test A pre-/postemergence herbicide test; assay type: in vivo, Ambrosia elatior; settings: for Plant response rating, Ragweed: 0 to 100 scale
Summary of the method: as §1

[4] = system: ryegrass, Italian; assay: Test A pre-/postemergence herbicide test; assay type: in vivo, Lolium multiflorum; settings: for Plant response rating, Ryegrass, Italian: 0 to 100 scale
Summary of the method: as §1

[5] = system: giant foxtail; assay: Test A pre-/postemergence herbicide test; assay type: in vivo, Setaria faberii; settings: for Plant response rating, Foxtail, Giant: 0 to 100 scale
Summary of the method: as §1

[6] = system: pigweed; assay: Test A pre-/postemergence herbicide test; assay type: in vivo, Amaranthus retroflexus; settings: for Plant response rating, Pigweed: 0 to 100 scale
Summary of the method: as §1

[7] = system: wheat; assay: Test A pre-/postemergence herbicide test; assay type: in vivo, Triticum aestivum; settings: Postemergence; for Plant response rating, Wheat: 125 g ai/ha, 0 to 100 scale, 0 is no effect, 100 is complete control; for Wheat plant response rating (0 to 100 scale, 0 is no effect, 100 is complete control): 500 g ai/ha
Summary of the method: as §1

[8] = system: corn; assay: Test A pre-/postemergence herbicide test; assay type: in vivo, Zea mays; settings: Postemergence; for Plant response rating, Corn: 125 g ai/ha, 0 to 100 scale, 0 is no effect, 100 is complete control; for Corn plant response rating (0 to 100 scale, 0 is no effect, 100 is complete control): 500 g ai/ha
Summary of the method: as §1

[9] = system: blackgrass; assay: Test A postemergence herbicide test; assay type: in vivo, Alopecurus myosuroides; settings: for Plant response rating, Blackgrass: 125 g ai/ha, 0 to 100 scale, 0 is no effect, 100 is complete control; for Blackgrass plant response rating (0 to 100 scale, 0 is no effect, 100 is complete control): 500 g ai/ha
Summary of the method: (§2)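 Visual injury rating, 0 (no effect) to 100 (complete control), versus untreated controls ~10 days after treatment. Postemergence spray applied at one- to two-leaf stage, plants 2–10 cm tall, potted in loam soil/sand. Greenhouse-held.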

[10] = system: galium; assay: Test A postemergence herbicide test; assay type: in vivo, Galium aparine; settings: for Plant response rating, Galium: 125 g ai/ha, 0 to 100 scale, 0 is no effect, 100 is complete control; for Galium plant response rating (0 to 100 scale, 0 is no effect, 100 is complete control): 500 g ai/ha
Summary of the method: as §2

[11] = system: rice; assay: Test B flooded paddy test; assay type: in vivo, Oryza sativa; settings: 500 g ai/ha, Flood; scale of 0 to 100 where 0 is no effect and 100 is complete control
Summary of the method: (§3)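 Scoring: visual, compared with untreated controls, 0 = no effect through 100 = complete control, taken 13 to 15 days after treatment in the greenhouse. Compounds had been added to paddy water over soil flooded 3 cm deep at the plants' 2-leaf stage.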

[12] = system: sedge, umbrella; assay: Test B flooded paddy test; assay type: in vivo, Cyperus difformis; settings: 500 g ai/ha, Flood; scale of 0 to 100 where 0 is no effect and 100 is complete control
Summary of the method: as §3

[13] = system: ducksalad; assay: Test B flooded paddy test; assay type: in vivo, Heteranthera limosa; settings: 500 g ai/ha, Flood; scale of 0 to 100 where 0 is no effect and 100 is complete control
Summary of the method: as §3

[14] = system: barnyardgrass; assay: Test B flooded paddy test; assay type: in vivo, Echinochloa crus-galli; settings: 500 g ai/ha, Flood; scale of 0 to 100 where 0 is no effect and 100 is complete control
Summary of the method: as §3

[15] = 125 g ai/ha, visual rating, 0 no effect, 100 complete control, approximately 10 days, preemergence
[16] = Postemergence, 125 g ai/ha, 0 is no effect, 100 is complete control
[17] = preemergence, 500 g ai/ha, 0 is no effect and 100 is complete control

SMILES | Plant response rating, Barnyardgrass [1, 15] | Plant response rating, Barnyardgrass [1, 16] | Barnyardgrass plant response rating (0 to 100 scale, 0 is no effect, 100 is complete control) ([1]; Postemergence, 500 g ai/ha) | Plant response rating, Barnyardgrass [1, 17] | Plant response rating, Kochia [2, 15] | Plant response rating, Kochia [2, 16] | Kochia plant response rating (0 to 100 scale, 0 is no effect, 100 is complete control) ([2]; Postemergence, 500 g ai/ha) | Plant response rating, Kochia [2, 17] | Plant response rating, Ragweed [3, 15] | Plant response rating, Ragweed [3, 16] | Ragweed plant response rating (0 to 100 scale, 0 is no effect, 100 is complete control) ([3]; Postemergence, 500 g ai/ha) | Plant response rating, Ragweed [3, 17] | Plant response rating, Ryegrass, Italian [4, 15] | Plant response rating, Ryegrass, Italian [4, 16] | Ryegrass, Italian plant response rating (0 to 100 scale, 0 is no effect, 100 is complete control) ([4]; Postemergence, 500 g ai/ha) | Plant response rating, Ryegrass, Italian [4, 17] | Plant response rating, Foxtail, Giant [5, 15] | Plant response rating, Foxtail, Giant [5, 16] | Foxtail, Giant plant response rating (0 to 100 scale, 0 is no effect, 100 is complete control) ([5]; Postemergence, 500 g ai/ha) | Plant response rating, Foxtail, Giant [5, 17] | also measured
Cc1ccccc1NC(=O)C1C(=O)NCC1c1ccc(OC(F)F)cc1 (stereo not drawn) [Compound 227] | 20 | 20 | 80 | 50 | 20 | 0 | 40 | 20 | 0 | 0 | 0 | 0 | 0 | 0 | 20 | 30 | 80 | 30 | 80 | 90 | Plant response rating, Pigweed [6, 15]: 0; Plant response rating, Pigweed [6, 16]: 0; Pigweed plant response rating (0 to 100 scale, 0 is no effect, 100 is complete control) ([6]; Postemergence, 500 g ai/ha): 0; Plant response rating, Pigweed [6, 17]: 20; Plant response rating, Wheat [7]: 0; Wheat plant response rating (0 to 100 scale, 0 is no effect, 100 is complete control) [7]: 0; Plant response rating, Corn [8]: 0; Corn plant response rating (0 to 100 scale, 0 is no effect, 100 is complete control) [8]: 0; Plant response rating, Blackgrass [9]: 0; Blackgrass plant response rating (0 to 100 scale, 0 is no effect, 100 is complete control) [9]: 40; Plant response rating, Galium [10]: 0; Galium plant response rating (0 to 100 scale, 0 is no effect, 100 is complete control) [10]: 0; Plant response rating, Rice [11]: 0; Plant response rating, Sedge, Umbrella [12]: 0; Plant response rating, Ducksalad [13]: 90; Plant response rating, Barnyardgrass [14]: 0
O=C1NCC(c2cccc(OC(F)F)c2)C1C(=O)Nc1ccccc1Br (stereo not drawn) [Compound 228] | 50 | 60 | 80 | 80 | 0 | 20 | 30 | 20 | 0 | 0 | 20 | 20 | 30 | 0 | 20 | 40 | 80 | 70 | 90 | 90 | Plant response rating, Pigweed [6, 15]: 0; Plant response rating, Pigweed [6, 16]: 0; Pigweed plant response rating (0 to 100 scale, 0 is no effect, 100 is complete control) ([6]; Postemergence, 500 g ai/ha): 0; Plant response rating, Pigweed [6, 17]: 0; Plant response rating, Wheat [7]: 0; Wheat plant response rating (0 to 100 scale, 0 is no effect, 100 is complete control) [7]: 20; Plant response rating, Corn [8]: 20; Corn plant response rating (0 to 100 scale, 0 is no effect, 100 is complete control) [8]: 30; Plant response rating, Blackgrass [9]: 20; Blackgrass plant response rating (0 to 100 scale, 0 is no effect, 100 is complete control) [9]: 40; Plant response rating, Galium [10]: 30; Galium plant response rating (0 to 100 scale, 0 is no effect, 100 is complete control) [10]: 40; Plant response rating, Rice [11]: 0; Plant response rating, Sedge, Umbrella [12]: 0; Plant response rating, Ducksalad [13]: 90; Plant response rating, Barnyardgrass [14]: 0
